# According to ChEMBL document CHEMBL1201862, “PubChem BioAssay data set” (2004):
# Values joined by “and” are separate entries in the source; they are usually repeats but may differ in a detail not shown here. Equal entries are not always repeated. Active and inactive are the calls of the source.
# Legend:
# Genome polyprotein = Genome polyprotein (dengue virus type 2, UniProt P29990); test: flavivirus cap methylation enzyme inhibition – biochemical, confirmation dose response, primary screen (AID 588689); assay type: functional
# Vero = test: viability of Vero cells under compound – cytotoxicity control for flavivirus capping enzyme inhibitors (AID 588742); assay type: functional; conditions: Chlorocebus sabaeus
# [1] = Luminescence Cell-Based Dose Retest to Confirm Inhibitors of Cancer Stem Cells. [Related pubchem assays (depositor defined):AID2717, AID2721]; assay type: functional; conditions: Homo sapiens
# cells [2] = assay type: functional, cell-based
# [3] = MIN6 cell viability loss – mouse insulinoma, cytotoxicity control, dose response (AID 2122); assay type: functional;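 also: confirmatory high-throughput counterscreen run to flag cytotoxic compounds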
# [4] = Luminescence Cell-Based Dose Response HTS to Identify Inhibitors of 5'UTR Stem-Loop Driven Prion Protein mRNA Translation in H4 Neuroglioblastoma Cells. [Related pubchem assays: 1827 (Project Summary), 1813 (Primary HTS)]; assay type: functional
# [5] = molecular target: Latent membrane protein 1 (Human herpesvirus 4 (strain B95-8), UniProt P03230); test: LMP1 TES1 pathway selectivity over dsRED control – imaging, HEK293T, dual-color eGFP/dsRED, cherry-picks, selectivity assay for LMP1 NF-kB inhibitor project, dose response (AID 588398); assay type: functional, cell-based
# Latent membrane protein 1, sequence (P03230 whole entry): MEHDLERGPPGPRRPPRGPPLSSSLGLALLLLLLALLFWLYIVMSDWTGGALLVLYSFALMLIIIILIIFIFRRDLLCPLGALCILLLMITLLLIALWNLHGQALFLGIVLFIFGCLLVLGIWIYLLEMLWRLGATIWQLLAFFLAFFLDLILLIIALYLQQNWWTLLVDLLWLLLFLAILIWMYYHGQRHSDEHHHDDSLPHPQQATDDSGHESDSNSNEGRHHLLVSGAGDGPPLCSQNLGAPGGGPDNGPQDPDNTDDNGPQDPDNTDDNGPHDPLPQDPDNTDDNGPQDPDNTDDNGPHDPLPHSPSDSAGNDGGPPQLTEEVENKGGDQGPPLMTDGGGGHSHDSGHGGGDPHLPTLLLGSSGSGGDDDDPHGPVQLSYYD
# [6] = decrease of insulin promoter-GFP reporter – imaging, high-content screening, mouse beta cells (AID 1628); assay type: functional; conditions: MIN6
# HEK293 = test: EBV LMP1 TES2 canonical NF-kB signalling blockers – cell-based, HEK293, luciferase, cherry-pick, dose response (AID 588343); assay type: functional; conditions: Homo sapiens
# [7] = alpha-synuclein stem-loop luciferase translation blockers – H4 neuroglioma cells, luminescence, confirmation (AID 1988); assay type: functional, cell-based
# [8] = luciferase reporter signal suppression in cells – H4 neuroglioma cells, luminescence, dose response (AID 1990); assay type: functional, cell-based
# cells [9] = assay type: functional, cell-based; remark: listed apart in the source
# INS1 = test: INS-1E survival protection against cytokine death – cell-based, luminescence, retest, dose response (AID 449756); assay type: functional; conditions: Rattus norvegicus;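 also: cell death triggered by IL-1 beta plus TNF-alpha plus IFN-gamma mixture; protective hits raise ATP signal compared with cytokine alone wells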
# [10] = molecular target: Beta-2 adrenergic receptor (Homo sapiens, UniProt P07550); test: ADRB2 activation measured by internalization – cell-based, FAP fluorogen, flow cytometry, cherry pick 1, dose response (AID 588763); assay type: functional
# Beta-2 adrenergic receptor, sequence (P07550 whole entry): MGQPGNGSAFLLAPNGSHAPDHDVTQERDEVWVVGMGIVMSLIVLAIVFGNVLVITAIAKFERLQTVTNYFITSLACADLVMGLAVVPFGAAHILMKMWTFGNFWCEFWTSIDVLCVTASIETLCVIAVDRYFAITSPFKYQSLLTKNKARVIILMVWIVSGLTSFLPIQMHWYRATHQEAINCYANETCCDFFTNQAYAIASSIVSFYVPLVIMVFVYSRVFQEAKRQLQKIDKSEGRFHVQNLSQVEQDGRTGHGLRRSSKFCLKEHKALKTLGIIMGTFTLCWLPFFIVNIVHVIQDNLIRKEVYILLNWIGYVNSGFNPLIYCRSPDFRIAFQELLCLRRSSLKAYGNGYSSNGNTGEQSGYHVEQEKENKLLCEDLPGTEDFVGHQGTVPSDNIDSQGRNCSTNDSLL
# Cytochrome P450 2C19 [11] = molecular target: T1, Cytochrome P450 2C19 (Homo sapiens, UniProt P33261); test: qHTS Assay for Inhibitors and Substrates of Cytochrome P450 2C19. [Related pubchem assays: 410 ]; assay type: ADME; conditions: read-out: Potency
# T1 sequence (P33261 whole entry): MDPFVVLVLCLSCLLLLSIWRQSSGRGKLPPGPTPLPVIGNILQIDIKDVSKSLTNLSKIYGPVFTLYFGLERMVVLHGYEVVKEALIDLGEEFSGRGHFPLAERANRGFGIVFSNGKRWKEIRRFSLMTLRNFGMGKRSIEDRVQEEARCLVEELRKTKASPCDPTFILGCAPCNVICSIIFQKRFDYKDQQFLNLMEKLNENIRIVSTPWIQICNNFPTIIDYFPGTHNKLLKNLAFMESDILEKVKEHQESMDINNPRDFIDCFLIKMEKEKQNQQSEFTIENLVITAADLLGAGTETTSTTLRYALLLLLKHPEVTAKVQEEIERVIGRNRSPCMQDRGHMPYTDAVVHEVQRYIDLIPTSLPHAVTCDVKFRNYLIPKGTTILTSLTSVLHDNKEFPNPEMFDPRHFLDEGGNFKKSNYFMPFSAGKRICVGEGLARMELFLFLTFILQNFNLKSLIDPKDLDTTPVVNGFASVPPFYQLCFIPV
# [12] = molecular target: Aryl hydrocarbon receptor (Homo sapiens, UniProt P35869); conditions: Potency;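 also: confirmatory quantitative high-throughput screen measuring activation of the AhR signaling pathway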
# Aryl hydrocarbon receptor, sequence (P35869 whole entry, the tested form may be a part): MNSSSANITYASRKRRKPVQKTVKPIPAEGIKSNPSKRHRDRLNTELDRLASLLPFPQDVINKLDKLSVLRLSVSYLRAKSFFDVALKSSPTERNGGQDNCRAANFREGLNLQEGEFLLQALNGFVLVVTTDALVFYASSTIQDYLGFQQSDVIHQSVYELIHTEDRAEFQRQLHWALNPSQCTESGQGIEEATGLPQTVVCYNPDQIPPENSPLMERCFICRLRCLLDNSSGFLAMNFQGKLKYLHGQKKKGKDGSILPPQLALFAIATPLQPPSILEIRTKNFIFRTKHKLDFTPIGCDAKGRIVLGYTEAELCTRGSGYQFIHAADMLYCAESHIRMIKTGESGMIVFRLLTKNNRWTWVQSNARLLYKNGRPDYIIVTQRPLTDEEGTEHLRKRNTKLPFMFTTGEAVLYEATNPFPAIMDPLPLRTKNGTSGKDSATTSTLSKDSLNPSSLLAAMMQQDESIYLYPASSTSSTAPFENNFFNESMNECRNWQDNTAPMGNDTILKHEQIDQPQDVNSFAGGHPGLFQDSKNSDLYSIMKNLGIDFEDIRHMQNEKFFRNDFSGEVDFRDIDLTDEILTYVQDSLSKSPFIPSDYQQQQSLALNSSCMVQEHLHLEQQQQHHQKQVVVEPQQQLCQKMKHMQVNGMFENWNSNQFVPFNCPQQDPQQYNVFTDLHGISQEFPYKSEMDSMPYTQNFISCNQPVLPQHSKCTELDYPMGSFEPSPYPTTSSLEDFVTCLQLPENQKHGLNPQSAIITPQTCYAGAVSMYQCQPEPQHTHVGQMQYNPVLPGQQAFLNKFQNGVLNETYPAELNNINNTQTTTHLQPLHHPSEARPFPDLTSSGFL
# [13] = molecular target: T2, Carboxy-terminal domain RNA polymerase II polypeptide A small phosphatase 1 (Homo sapiens, UniProt Q9GZU7); test: CTDSP1 inhibitors, concentration-response, biochemical, absorbance readout, ultra-high-throughput screen actives (AID 540297); assay type: functional
# T2 sequence (Q9GZU7 whole entry): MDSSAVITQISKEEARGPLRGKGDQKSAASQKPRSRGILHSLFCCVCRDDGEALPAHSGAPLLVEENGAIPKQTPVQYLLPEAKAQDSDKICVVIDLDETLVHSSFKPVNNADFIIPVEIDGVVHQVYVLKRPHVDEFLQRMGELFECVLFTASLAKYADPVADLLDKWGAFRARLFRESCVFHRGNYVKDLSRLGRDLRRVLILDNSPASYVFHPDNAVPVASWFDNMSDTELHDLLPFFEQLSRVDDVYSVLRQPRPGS
# [14] = molecular target: Dual specificity tyrosine-phosphorylation-regulated kinase 1A (Rattus norvegicus, UniProt Q63470); assay type: biochemical, Homo sapiens
# [15] = molecular target: T3, Rac GTPase-activating protein 1 (Homo sapiens, UniProt Q9H0H5); test: blockers of MgcRacGAP-driven Rac1 GTP hydrolysis – biochemical, ADP Hunter fluorescence, primary and confirmatory, confirmation (AID 624330); assay type: functional
# T3 sequence (Q9H0H5 whole entry): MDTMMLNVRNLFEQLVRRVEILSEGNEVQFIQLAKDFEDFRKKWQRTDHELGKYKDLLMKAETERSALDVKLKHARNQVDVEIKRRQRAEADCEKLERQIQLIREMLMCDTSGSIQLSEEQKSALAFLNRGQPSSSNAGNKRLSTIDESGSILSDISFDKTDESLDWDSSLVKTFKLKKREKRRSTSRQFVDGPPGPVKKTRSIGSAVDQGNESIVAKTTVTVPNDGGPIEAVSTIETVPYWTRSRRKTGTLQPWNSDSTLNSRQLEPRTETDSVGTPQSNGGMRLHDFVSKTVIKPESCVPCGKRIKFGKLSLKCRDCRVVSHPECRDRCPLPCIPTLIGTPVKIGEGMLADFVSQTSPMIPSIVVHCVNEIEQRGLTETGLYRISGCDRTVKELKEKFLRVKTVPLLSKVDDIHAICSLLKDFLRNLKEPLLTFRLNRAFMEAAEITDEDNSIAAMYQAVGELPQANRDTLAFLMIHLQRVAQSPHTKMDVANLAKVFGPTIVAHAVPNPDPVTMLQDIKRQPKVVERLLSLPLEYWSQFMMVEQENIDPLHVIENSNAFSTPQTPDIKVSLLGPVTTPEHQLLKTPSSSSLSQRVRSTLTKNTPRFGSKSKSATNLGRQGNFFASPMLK
# [16] = molecular target: Voltage-gated inwardly rectifying potassium channel KCNH2 (Homo sapiens, UniProt Q12809); conditions: Potency;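 also: confirmatory quantitative high-throughput screen measuring inhibition of hERG channel activity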
# Voltage-gated inwardly rectifying potassium channel KCNH2, sequence (Q12809 whole entry): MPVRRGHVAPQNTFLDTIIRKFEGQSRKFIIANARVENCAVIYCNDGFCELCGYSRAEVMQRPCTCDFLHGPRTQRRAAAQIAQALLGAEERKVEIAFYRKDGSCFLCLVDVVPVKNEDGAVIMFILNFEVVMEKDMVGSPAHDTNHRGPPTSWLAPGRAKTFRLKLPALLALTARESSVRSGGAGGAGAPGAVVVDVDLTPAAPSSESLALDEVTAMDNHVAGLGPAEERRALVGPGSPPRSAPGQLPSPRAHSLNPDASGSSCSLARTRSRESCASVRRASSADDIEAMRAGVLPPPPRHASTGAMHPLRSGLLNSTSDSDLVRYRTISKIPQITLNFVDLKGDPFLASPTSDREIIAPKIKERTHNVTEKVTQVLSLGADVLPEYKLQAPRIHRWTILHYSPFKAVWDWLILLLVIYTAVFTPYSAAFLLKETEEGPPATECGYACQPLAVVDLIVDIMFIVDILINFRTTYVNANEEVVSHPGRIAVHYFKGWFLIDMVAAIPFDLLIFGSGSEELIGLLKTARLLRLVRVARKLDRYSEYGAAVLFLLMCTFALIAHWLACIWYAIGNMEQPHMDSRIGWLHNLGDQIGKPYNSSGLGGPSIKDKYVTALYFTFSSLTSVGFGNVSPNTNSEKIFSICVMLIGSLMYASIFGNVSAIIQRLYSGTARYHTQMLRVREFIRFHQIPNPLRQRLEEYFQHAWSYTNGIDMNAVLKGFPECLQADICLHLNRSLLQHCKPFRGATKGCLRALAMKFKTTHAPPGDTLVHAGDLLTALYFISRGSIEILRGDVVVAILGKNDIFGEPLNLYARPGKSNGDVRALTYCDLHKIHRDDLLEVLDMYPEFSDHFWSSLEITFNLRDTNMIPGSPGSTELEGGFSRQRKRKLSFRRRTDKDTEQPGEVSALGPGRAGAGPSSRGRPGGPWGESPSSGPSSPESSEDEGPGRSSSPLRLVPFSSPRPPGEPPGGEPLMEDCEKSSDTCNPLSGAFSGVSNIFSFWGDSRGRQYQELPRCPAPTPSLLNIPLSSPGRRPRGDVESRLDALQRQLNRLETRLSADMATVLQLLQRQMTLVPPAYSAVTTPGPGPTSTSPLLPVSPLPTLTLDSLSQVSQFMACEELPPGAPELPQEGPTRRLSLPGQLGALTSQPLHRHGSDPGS
# Cytochrome P450 2C19 [17] = molecular target: T1, Cytochrome P450 2C19; test: Cytochrome panel assay with activity outcomes. Panel member name: p450-cyp2c19 Compounds with AC50 equal or less than 10 uM are considered active; assay type: functional; conditions: read-out: AC50
# Cytochrome P450 2C9 = Cytochrome P450 2C9 (Homo sapiens, UniProt P11712)
# Cytochrome P450 2C9, sequence (P11712 whole entry): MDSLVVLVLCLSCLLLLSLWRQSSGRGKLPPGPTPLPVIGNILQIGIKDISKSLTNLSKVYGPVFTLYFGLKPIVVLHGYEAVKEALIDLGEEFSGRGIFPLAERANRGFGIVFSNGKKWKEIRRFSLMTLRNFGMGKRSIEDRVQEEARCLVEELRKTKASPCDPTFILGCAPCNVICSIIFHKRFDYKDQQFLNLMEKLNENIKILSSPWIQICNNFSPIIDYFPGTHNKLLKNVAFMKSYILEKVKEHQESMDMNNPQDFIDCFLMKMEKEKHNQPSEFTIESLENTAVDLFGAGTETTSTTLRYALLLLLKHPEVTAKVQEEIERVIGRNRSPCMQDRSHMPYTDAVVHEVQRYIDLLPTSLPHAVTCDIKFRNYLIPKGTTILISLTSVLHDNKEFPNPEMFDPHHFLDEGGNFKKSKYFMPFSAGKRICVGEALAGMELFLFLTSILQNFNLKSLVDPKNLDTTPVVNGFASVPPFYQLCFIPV
# [18] = molecular target: T4, Endoribonuclease toxin MazF (Escherichia coli K-12, UniProt P0AE70); test: activation of MazEF endoribonuclease cleavage – biochemical, fluorescence, single-stranded RNA substrate, uHTS hits, dose response (AID 588481); assay type: functional
# T4 sequence (P0AE70 whole entry): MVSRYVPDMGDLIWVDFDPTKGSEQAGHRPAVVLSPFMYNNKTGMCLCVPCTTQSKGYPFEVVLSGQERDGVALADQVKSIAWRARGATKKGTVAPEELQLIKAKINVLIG
# Beta Lactamase = Beta Lactamase (Pseudomonas aeruginosa, UniProt Q932Y6); test: BLA reporter interference, concentration series – BLA reporter cells, FRET fluorescence, artefact control for TLR9-MyD88 binding inhibitor project, dose response (AID 588341); assay type: cell-based;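 also: cell based assay in CHO-K1 cells stably expressing beta-lactamase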
# Beta Lactamase, sequence (Q932Y6 whole entry): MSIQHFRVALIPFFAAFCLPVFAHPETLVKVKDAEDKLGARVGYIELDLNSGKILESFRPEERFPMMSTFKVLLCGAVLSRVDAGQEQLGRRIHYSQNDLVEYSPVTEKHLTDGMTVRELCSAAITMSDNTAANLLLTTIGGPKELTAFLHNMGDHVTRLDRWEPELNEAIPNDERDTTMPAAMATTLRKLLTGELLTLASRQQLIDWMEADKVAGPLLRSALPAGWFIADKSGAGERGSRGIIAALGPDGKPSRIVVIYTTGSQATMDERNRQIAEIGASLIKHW
# [19] = molecular target: T4, Endoribonuclease toxin MazF; test: substrate-only fluorescence increase artefacts – biochemical, single-stranded RNase substrate, counter-screen for MazEF activator project, dose response (AID 588502); assay type: functional
# CHO = CHO cell viability loss, potency – luminescence, cytotoxicity control for TLR9-MyD88 binding inhibitor project, dose response (AID 588339); assay type: functional, cell-based, hamster; conditions: Cricetulus griseus;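 also: CHO cells stably coexpressing TLR9 and MyD88 fusions from primary screen; compound exposure lasted 48 hours before viability readout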
# [20] = A Cell Based Secondary Assay To Explore Cytotoxicity of Compounds that Sensitize Mycobacterium Tuberculosis to Beta-Lactam Antibiotics.; assay type: functional
# [21] = molecular target: Sphingosine 1-phosphate receptor 4 (Homo sapiens, UniProt O95977); test: Late-stage fluorescence-based dose-response cell-based counterscreen assay to identify agonists of the Sphingosine 1-Phosphate Receptor 3 (S1P3): Sphingosine 1-Phosphate Receptor 4 (S1P4) agonist assay.; assay type: functional
# Sphingosine 1-phosphate receptor 4, sequence (O95977 whole entry): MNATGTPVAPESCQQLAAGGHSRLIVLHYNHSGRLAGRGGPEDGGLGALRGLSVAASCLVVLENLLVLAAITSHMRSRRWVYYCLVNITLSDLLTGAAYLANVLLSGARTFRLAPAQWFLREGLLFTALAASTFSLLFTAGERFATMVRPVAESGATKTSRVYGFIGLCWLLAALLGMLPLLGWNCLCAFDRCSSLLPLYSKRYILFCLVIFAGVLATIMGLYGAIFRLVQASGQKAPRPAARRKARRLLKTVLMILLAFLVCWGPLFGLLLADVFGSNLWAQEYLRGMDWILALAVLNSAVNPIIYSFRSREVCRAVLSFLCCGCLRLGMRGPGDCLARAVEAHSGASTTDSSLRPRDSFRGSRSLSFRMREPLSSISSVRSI
# [22] = molecular target: Sphingosine 1-phosphate receptor 2 (Homo sapiens, UniProt O95136); test: Late-stage fluorescence-based dose-response cell-based counterscreen assay to identify agonists of the Sphingosine 1-Phosphate Receptor 3 (S1P3): Sphingosine 1-Phosphate Receptor 2 (S1P2) agonist assay.; assay type: functional
# [23] = molecular target: Dual specificity protein kinase CLK1 (Homo sapiens, UniProt P49759); test: inhibition of human CLK1 activity – biochemical, cherry-picked samples, selectivity assay for Dyrk1A inhibitor project, dose response (AID 588811)
# Dual specificity protein kinase CLK1, sequence (P49759 whole entry): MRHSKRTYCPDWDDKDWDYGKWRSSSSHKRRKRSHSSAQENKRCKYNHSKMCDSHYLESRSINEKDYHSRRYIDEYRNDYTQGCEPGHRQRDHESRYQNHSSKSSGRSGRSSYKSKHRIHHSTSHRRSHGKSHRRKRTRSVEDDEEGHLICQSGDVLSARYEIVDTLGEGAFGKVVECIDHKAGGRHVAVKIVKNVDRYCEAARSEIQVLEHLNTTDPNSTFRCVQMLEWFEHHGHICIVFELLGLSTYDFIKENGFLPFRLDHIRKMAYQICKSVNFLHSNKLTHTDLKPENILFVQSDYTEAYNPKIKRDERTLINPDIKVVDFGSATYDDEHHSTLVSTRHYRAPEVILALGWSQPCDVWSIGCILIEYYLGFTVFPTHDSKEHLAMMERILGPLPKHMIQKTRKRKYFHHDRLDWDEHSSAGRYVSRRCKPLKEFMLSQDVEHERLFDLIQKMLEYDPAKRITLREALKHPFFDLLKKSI
compound,measurement,setting,value
CCc1ccc(N2C(=O)c3sc4nnc(-c5ccccc5)c(=O)n4c3C2=O)cc1,IC50,Genome polyprotein,48.5 µM (active)
same,CC50,Vero,> 40 µM (active)
CCOC(=O)c1c(C)[nH]c(C(=O)N/N=C\c2ccccc2O)c1C,AC50,[1],3.54 µM (active)
same,EC50,cells [2],6.77 µM (active)
same,IC50,[3],1.99 µM (active)
same,EC50,[4],> 120 µM (not active)
same,AC50,[5],14.6 µM (active)
same,IC50,[6],2.25 µM (active)
same,AC50,HEK293,4.91 µM (active)
same,EC50,[7],8.44 µM (active)
same,EC50,[8],> 120 µM (not active)
same,EC50,cells [9],41.9 µM (active)
same,AC50,INS1,1.69 µM (active)
O=C(CCCCCn1c(=O)[nH]c2ccsc2c1=O)NCc1ccc(F)cc1,EC50,[10],0.0776 µM (active)
O=c1c(O)c(-c2ccc(O)cc2)oc2cc(O)cc(O)c12 [KAEMPFEROL],AC50,Cytochrome P450 2C19 [11],10 µM (inconclusive)
same,AC50,[12],44.7 µM (inconclusive) and 56.2 µM (inconclusive)
same,IC50,[13],9.93 µM (active)
same,AC50,[14],1.26 µM (active)
same,IC50,[15],44.5 µM (active)
same,AC50,[16],0.0022 µM (inconclusive)
same,AC50,Cytochrome P450 2C19 [17],6.31 µM (inconclusive)
same,AC50,Cytochrome P450 2C9,0.00126 µM (inconclusive)
Nc1c(C(=O)c2cccs2)sc2nsc(SCCN3CCCCC3)c12,EC50,[18],12 µM (active)
same,IC50,Beta Lactamase,9.89 µM (active)
same,EC50,[19],> 99 µM (inactive)
same,IC50,CHO,> 49.8 µM (inactive)
same,CC50,[20],> 40 µM (active)
O=C(c1cc(C2CC2)on1)N(CC1CCCCC1)C1CCCCC1,EC50,[21],> 50 µM (inactive)
same,EC50,[22],> 50 µM (inactive)
c1cncc(CNc2ccnc(-c3ccc4cn[nH]c4c3)n2)c1,AC50,[23],2.01 µM (active)
